Tests used:
Experiment in all cases: Post-emergence herbicidal action (Example B2)
Assay type in all cases: in vivo
Conditions in all cases: 250 g/ha, after about 18 days, rating scale 10=total damage, 0=no action
Euphorbia = test system: Euphorbia
Description: (§1) Monocotyledonous and dicotyledonous test plants are cultivated in a greenhouse in standard soil in plastic pots and, at the 4- to 6-leaf stage, are sprayed with an aqueous suspension of the test compounds of formula I prepared from a 25% wettable powder (Example F3, b) according to WO 97/34485) or with an emulsion of the test compounds of formula I prepared from a 25% emulsifiable concentrate (Example F1, c) according to WO 97/34485), corresponding to concentrations of 125 and 250 g of active ingredient per hectare (500 litres of water per ha). The test plants are then grown on in the greenhouse under optimum conditions. After a test duration of about 18 days, the test is evaluated in accordance with a scale of eleven ratings (10=total damage, 0=no action). Ratings of from 10 to 7 (especially from 10 to 8) indicate very good to good herbicidal action.

Echinochloa = test system: Echinochloa
Description: as §1

Xanthium = test system: Xanthium
Description: as §1

Amaranthus = test system: Amaranthus
Description: as §1

Chenopodium = test system: Chenopodium
Description: as §1

Stellaria = test system: Stellaria
Description: as §1

Panicum = test system: Panicum
Description: as §1

| Compound | Post-emergence action: Euphorbia (Euphorbia) | Post-emergence action: Echinochloa (Echinochloa) | Post-emergence action: Xanthium (Xanthium) | Post-emergence action: Amaranthus (Amaranthus) | Post-emergence action: Chenopodium (Chenopodium) | Post-emergence action: Stellaria (Stellaria) | Post-emergence action: Panicum (Panicum) |
| --- | --- | --- | --- | --- | --- | --- | --- |
| CC1(C)OC(C)(C)C(O)=C(C(=O)c2ccc(C(F)(F)F)c(N3CCOCC3)n2)C1=O [Compound 3.076] | 6 | 7 | 8 | 7 | 9 | 7 | 7 |
| O=C1CCC2(CC2)C(O)=C1C(=O)c1ccc(C(F)(F)F)c(N2CCOCC2)n1 [Compound 3.068] | 9 | 9 | 9 | 10 | 9 | 9 | 10 |
| CC1(C)C(=O)C(C(=O)c2ccc(C(F)(F)F)c(C#N)n2)=C(O)C(C)(C)C1=O [Compound 2.208] | 8 | 9 | 8 | 8 | 6 | 5 | 9 |
| O=C1CCCC(O)=C1C(=O)c1ccc(C(F)(F)F)c(-n2ccc(C(F)(F)F)n2)n1 [Compound 1.081] | 9 | 9 | 9 | 10 | 9 | 6 | 10 |
| CC1=NOC(c2nc(C(=O)C3=C(O)CCCC3=O)ccc2C(F)(F)F)C1 (stereo not shown) [Compound 1.203] | 7 | 8 | 8 | 8 | 9 | 7 | 9 |
| C=C(OCC)c1nc(C(=O)C2=C(O)C(C)(C)C(=O)C(C)(C)C2=O)ccc1C(F)(F)F [Compound 2.188] | 7 | 7 | 8 | 5 | 6 | 10 | 9 |
| CCC(=O)N(C)c1nc(C(=O)C2=C(O)CCCC2=O)ccc1C(F)(F)F [Compound 1.090] | – | 7 | 8 | 8 | 9 | 6 | 8 |
| CCOc1nc(C(=O)C2=C(O)C(C)(C)C(=O)C(C)(C)C2=O)ccc1C(F)(F)F [Compound 2.095] | 9 | 9 | 9 | 9 | 8 | 5 | 9 |
| CC1(C)C(=O)C(C(=O)c2ccc(C(F)(F)F)c(-n3ccc(C(F)(F)F)n3)n2)=C(O)C(C)(C)C1=O [Compound 2.080] | 9 | 9 | 9 | 9 | 6 | 7 | 9 |
| N#CC1CC(=O)C(C(=O)c2ccc(C(F)(F)F)c(N3CCOCC3)n2)=C(O)C1 (stereo not shown) [Compound 3.212] | 7 | 5 | 8 | 8 | 7 | 7 | 0 |
| O=C1CCCC(O)=C1C(=O)c1ccc(C(F)(F)F)c(OC2CCOC2)n1 (stereo not shown) [Compound 1.021] | 7 | 6 | 9 | 9 | 8 | 7 | 6 |
